Earlier results on three substances are cited in patent US20260265370A1, “COMBINATION THERAPIES INVOLVING CLAUDIN 18.2 ANTAGONISTS FOR TREATMENT OF CANCER” (SUZHOU TRANSCENTA THERAPEUTICS CO., LTD., priority 2023, published 2026).

Like-named read-outs stand apart in the source and are kept apart here.

The test system of series [1] is unresectable advanced or recurrent gastric cancer. Particulars: cited from earlier work.
Series [2] deals with CLDN18.2+/HER2− locally advanced or metastatic gastric or gastroesophageal junction (mG/GEJ) adenocarcinoma. To be noted: cited from earlier work; for ORR: patients with measurable disease.
For a further series, the system named is advanced GC/GEJ cancer. Particulars: cited from earlier work.
The mark [3] stands for this setting: CLDN18.2 ≥75% tumor cell staining 2+ or 3+.
[4] abbreviates: zolbetuximab+CAPOX vs PBO+CAPOX.

Consider Nivolumab: PD-1 checkpoint inhibitor, for which, in series [1] (in vivo), the ORR is 11%. In addition, in series [1] (n=330), the “12-month OS rate” value is 26.2%. For the same substance, the “overall survival (OS)” value in series [1] (progressed after two or more chemotherapy regimens) is recorded as 5.26 months. Moreover, the “HR of OS” value in series [1] (vs placebo) was 0.63.
As for “Zolbetuximab + CAPOX: GLOW arm: zolbetuximab plus capecitabine and oxaliplatin”, in series [2] (setting [3]), the mDoR is listed as 6.28 months, the mPFS is given as 8.21 months and the ORR is reported as 53.8%. Further, in series [2] (CLDN18.2 ≥75% tumor cell staining 2+ or 3+, listed as Zolbetuximab+CAPOX), the ORR was 53.8%. Moreover, in series [2] (CLDN18.2 ≥75% tumor cell staining 2+ or 3+, listed as zolbetuximab+CAPOX), the ORR is 53.8%. Besides, in series [2] (in vivo), the OS median is 14.39 mo, the TEAE decreased appetite is listed as 41.3%, the TEAE nausea was 68.5% and the TEAE vomiting is reported as 66.1%. In series [2] (in vivo), the “drug-related TEAEs leading to death” value was 2.4%, the “grade ≥3 TEAEs” value is on record as 72.8% and the “serious TEAEs” value is on record as 47.2%. In series [2] (setting [4]), the “HR of OS” value is 0.771 and the “HR of PFS” value is listed as 0.687.
“Zolbetuximab: first-in-class, chimeric monoclonal antibody specific to a CLDN18.2 epitope”: the “tolerability” value with advanced GC/GEJ cancer (in vivo) is “well-tolerated”. Further, in the series on advanced GC/GEJ cancer (phase IIa monotherapy, strong CLDN18.2 expression, ≥2+ staining intensity in 70% of tumor cells), the ORR is 14%.
